Measured values: patent US11674123B2, “Generating arterial endothelial cell populations” (Wisconsin Alumni Research Foundation, priority 2015, dated 2023)
Entries after “also recorded” stand apart in the source; their conditions may differ.

Experiments:
Type in all cases: cell-based, human
[1] = test system: EFNB2-tdTomato/EPHB4-EGFP dual reporter cells (H1 ES cells); test: Arterial endothelial differentiation of EFNB2-tdTomato/EPHB4-EGFP dual reporter cells, flow cytometry; details: for arterial endothelial differentiation of human pluripotent stem cells (conclusion after FACS sorting and RT-qPCR): summary statement; for arterial differentiation (EFNB2-tdTomato high/EPHB4-EGFP low cells), factor removed: factor removed from the medium after mesoderm formation, day 2 to day 6, FIGS. 3A-3F; for arterial specification (EFNB2-tdTomato and EPHB4-EGFP expression), factor added singly: added to Control medium (E5+100 ng/ml FGF2+10 μM SB431542): 50 ng/ml VEGF, 5 μM RESV or 50 ng/ml WNT3A, FIG. 11; for EFNB2-tdTomato high/EPHB4-EGFP low cells, factor removed from five factors medium: individual removal, FIGS. 4A-4B; for arterial endothelial cell differentiation (EFNB2-tdTomato high/EPHB4-EGFP low cells), factor added: added day 2 to day 6 to E5 + 50 ng/ml VEGFA + 10 μM SB431542, 5 μM L690, 5 μg/ml LDL, 100 ng/ml PDGF-BB, FIGS. 3E-3F; for EFNB2-tdTomato high/EPHB4-EGFP low cells / arterial differentiation, factor added to five factors medium: 100 ng/ml PDGF-BB or exogenous WNT3A, FIGS. 4A-4F, FIG. 9
Experimental: (A) Flow cytometric analysis of EFNB2-tdTomato and EPHB4-EGFP expression on CD31 and CD144 gated endothelial cells. EFNB2-tdTomato/EPHB4-EGFP dual reporter cells (hetero knock-in in H1 cells for each gene) were first differentiated into mesoderm cells by E8BAC medium (E8 medium supplemented with BMP4, Activin-A, and CHIR99021). E5 (E8 medium minus FGF2, TGFβ1, and insulin) medium supplemented with 100 ng/ml FGF2, 50 ng/ml VEGFA, and 50 ng/ml BMP4 was used to induce mesoderm cells to differentiate into endothelial cells from day 2 to day 6. Either Insulin (20 μg/ml) or Ly294002 (16 μM, a PI3K inhibitor) was added to the medium as indicated from day 2 to day 6. (B) Statistics of EFNB2-tdTommato^high/EPHB4-EGFP^low cells. […] (C) Western blots showing AKT activity. Protein was harvested at day 3. (D) Flow cytometric analysis of EFNB2-tdTomato and EPHB4-EGFP expression on CD31 and CD144 gated endothelial cells. E5 medium supplemented with 50 ng/ml VEGFA, 50 ng/ml BMP4 or 10 μM SB431542 was used to induce mesoderm cells to differentiate into endothelial cells from day 2 to day 6. (E) Flow cytometric analysis of EFNB2-tdTomato and EPHB4-EGFP expression on CD31 and CD144 gated endothelial cells. ES cells were first differentiated into mesoderm cells as mentioned above. E5 medium supplemented with 50 ng/ml VEGFA and 10 μM SB431542 was used as the base medium induce mesoderm cells to differentiate into endothelial cells from day 2 to day 6. Other factors were added to the base medium as indicated. (F) Statistics of EFNB2-tdTomato^high/EPHB4-EGFP^low cells. […] FIGS. 4A-4H present flow cytometric analysis of expression of EphrinB2 and Ephrin Type B Receptor 4 reporter constructs (EFNB2-tdTomato and EPHB4-EGFP) on CD31- and CD144-gated endothelial cells obtained after differentiation in various medium, as described. FIG. 4B illustrates the percentage of arterial endothelial cells (AEC) (EFNB2-tdTomato^high/EPHB4-EGFP^low) obtained after differentiation in the various medium conditions of FIG. 4A. Data are represented as mean±SD. […] FIG. 4D illustrates the percentage of CXCR4^+CD144^+ arterial endothelial cells obtained after differentiation in the various medium conditions of FIG. 4C. […] FIG. 4F illustrates the percentage of DLL4^+CD144^+ arterial endothelial cells obtained after differentiation in the various medium conditions of FIG. 4E. 5 μM L-690,330 (a bisphosphonate inhibitor of inositol monophosphatase), and 100 ng/ml PDGF-BB (platelet derived growth factor BB) were used. […] FIGS. 11A-11C present arterial endothelial cell differentiation data. (A) Schematic of arterial endothelial cell differentiation protocol. ES cells were first differentiated into mesoderm cells by E8BAC medium (E8 medium supplemented with 5 ng/ml BMP4, 25 ng/ml Activin A, and 1 μM CHIR99021). E5 (E8 medium minus FGF2, TGFβ1, and insulin) medium supplemented with 100 ng/ml FGF2 and 10 μM SB431542 was then used to induce mesoderm cells to differentiate into endothelial cells. (B) Flow cytometric analysis of CD31 and CD34 expression. E5+100 ng/ml FGF2+10 μM SB431542 medium (“Control”) supplemented with 50 ng/ml VEGF, 5 μM RESV (resveratrol, a Notch activator), or 50 ng/ml WNT3A was used to induce mesoderm cells to differentiate into arterial endothelial cells. (C) Flow cytometric analysis of EFNB2-tdTomato and EPHB4-EGFP expression.

[2] = test system: AKT; test: Western blot of AKT activity (pAKT) during differentiation; details: protein harvested at day 3, insulin 20 μg/ml, Ly294002 16 μM, FIG. 3C
Experimental: FIGS. 3A-3F present candidate pathways critical for arteriovenous specification. (A) Flow cytometric analysis of EFNB2-tdTomato and EPHB4-EGFP expression on CD31 and CD144 gated endothelial cells. EFNB2-tdTomato/EPHB4-EGFP dual reporter cells (hetero knock-in in H1 cells for each gene) were first differentiated into mesoderm cells by E8BAC medium (E8 medium supplemented with BMP4, Activin-A, and CHIR99021). E5 (E8 medium minus FGF2, TGFβ1, and insulin) medium supplemented with 100 ng/ml FGF2, 50 ng/ml VEGFA, and 50 ng/ml BMP4 was used to induce mesoderm cells to differentiate into endothelial cells from day 2 to day 6. Either Insulin (20 μg/ml) or Ly294002 (16 μM, a PI3K inhibitor) was added to the medium as indicated from day 2 to day 6. (B) Statistics of EFNB2-tdTommato^high/EPHB4-EGFP^low cells. Data are represented as mean±SD. *: P<0.05, n=5. (C) Western blots showing AKT activity. Protein was harvested at day 3. (D) Flow cytometric analysis of EFNB2-tdTomato and EPHB4-EGFP expression on CD31 and CD144 gated endothelial cells. E5 medium supplemented with 50 ng/ml VEGFA, 50 ng/ml BMP4 or 10 μM SB431542 was used to induce mesoderm cells to differentiate into endothelial cells from day 2 to day 6. (E) Flow cytometric analysis of EFNB2-tdTomato and EPHB4-EGFP expression on CD31 and CD144 gated endothelial cells. ES cells were first differentiated into mesoderm cells as mentioned above. […]

[3] = test system: CXCR4+CD144+ and DLL4+CD144+ arterial endothelial cells; test: Flow cytometry of CXCR4/CD144 and DLL4/CD144 on differentiated endothelial cells; details: FIGS. 4C-4F; for CXCR4 and DLL4 (CD144+CXCR4+ and CD144+DLL4+ cells), factor removed from five factors medium: individual removal
Text: FIGS. 4A-4H present flow cytometric analysis of expression of EphrinB2 and Ephrin Type B Receptor 4 reporter constructs (EFNB2-tdTomato and EPHB4-EGFP) on CD31- and CD144-gated endothelial cells obtained after differentiation in various medium, as described. FIG. 4B illustrates the percentage of arterial endothelial cells (AEC) (EFNB2-tdTomato^high/EPHB4-EGFP^low) obtained after differentiation in the various medium conditions of FIG. 4A. Data are represented as mean±SD. […] FIG. 4D illustrates the percentage of CXCR4^+CD144^+ arterial endothelial cells obtained after differentiation in the various medium conditions of FIG. 4C. […] FIG. 4F illustrates the percentage of DLL4^+CD144^+ arterial endothelial cells obtained after differentiation in the various medium conditions of FIG. 4E. 5 μM L-690,330 (a bisphosphonate inhibitor of inositol monophosphatase), and 100 ng/ml PDGF-BB (platelet derived growth factor BB) were used. […] Arterial endothelial cell differentiation and expansion: It took six days for AECs differentiation. From day 0 to day 2, human ES/iPS cells were first differentiated into mesoderm cells as mentioned above. From day 2 to day 6, E5 medium was used and growth factors or small molecules were added as indicated. With the combination of “five factors,” AECs were induced by E5 medium supplemented with 100 ng/ml FGF, 50 ng/ml VEGF, 10 μM SB431542, 5 μM RESV, and 10 μM […] from day 2 to day 6.

TGF-β
arterial endothelial differentiation of human pluripotent stem cells (conclusion after FACS sorting and RT-qPCR) [1]: inhibit arterial endothelial differentiation

insulin: insulin, medium component, activates AKT
arterial differentiation (EFNB2-tdTomato high/EPHB4-EGFP low cells), factor removed [1]: triggered AEC differentiation
arterial endothelial differentiation of human pluripotent stem cells (conclusion after FACS sorting and RT-qPCR) [1]: inhibit arterial endothelial differentiation
Phosphorylated AKT (pAKT) [2]: increased

Oc1ccc(C=Cc2cc(O)cc(O)c2)cc1 [RESV, 3,4′,5-trihydroxystilbene, reference compound]
arterial specification (EFNB2-tdTomato and EPHB4-EGFP expression), factor added singly [1]: promoted increased arterial specification
EFNB2-tdTomato high/EPHB4-EGFP low cells, factor removed from five factors medium [1]: decrease

CC(Oc1ccc(O)cc1)(P(=O)(O)O)P(=O)(O)O [L-690,330, reference compound]
arterial endothelial cell differentiation (EFNB2-tdTomato high/EPHB4-EGFP low cells), factor added [1]: increased arterial endothelial cell differentiation
EFNB2-tdTomato high/EPHB4-EGFP low cells, factor removed from five factors medium [1]: fewer
arterial endothelial differentiation of human pluripotent stem cells (conclusion after FACS sorting and RT-qPCR) [1]: promote arterial endothelial differentiation
CXCR4 and DLL4 (CD144+CXCR4+ and CD144+DLL4+ cells), factor removed from five factors medium [3]: no reduction

NC(=O)c1ccc(-c2nc(-c3ccc4c(c3)OCO4)c(-c3ccccn3)[nH]2)cc1 [SB431542, reference compound]
arterial differentiation (EFNB2-tdTomato high/EPHB4-EGFP low cells), factor removed [1]: inhibited arterial differentiation
EFNB2-tdTomato high/EPHB4-EGFP low cells, factor removed from five factors medium [1]: decrease
CXCR4 and DLL4 (CD144+CXCR4+ and CD144+DLL4+ cells), factor removed from five factors medium [3]: decreased

FGF2: human fibroblast growth factor 2
arterial endothelial cell differentiation (EFNB2-tdTomato high/EPHB4-EGFP low cells), factor added [1]: increased arterial endothelial cell differentiation
EFNB2-tdTomato high/EPHB4-EGFP low cells, factor removed from five factors medium [1]: decrease
arterial endothelial differentiation of human pluripotent stem cells (conclusion after FACS sorting and RT-qPCR) [1]: promote arterial endothelial differentiation
CXCR4 and DLL4 (CD144+CXCR4+ and CD144+DLL4+ cells), factor removed from five factors medium [3]: decreased

B1: PDGF-BB: platelet derived growth factor BB (protein, UniProt P01127 82-190, looked up)
Platelet-derived growth …: SLGSLTIAEPAMIAECKTRTEVFEISRRLIDRTNANFLVWPPCVEVQRCSGCCNNRNVQCRPTQVQLRPVQVRKIEIVRKKPIFKKATVTLEDHLACKCETVAAARPVT
modifications: homodimer
EFNB2-tdTomato high/EPHB4-EGFP low cells / arterial differentiation, factor added to five factors medium [1]: fewer
arterial endothelial cell differentiation (EFNB2-tdTomato high/EPHB4-EGFP low cells), factor added [1]: inhibited arterial differentiation
arterial endothelial differentiation of human pluripotent stem cells (conclusion after FACS sorting and RT-qPCR) [1]: inhibit arterial endothelial differentiation
CD144+CXCR4+ and CD144+DLL4+ cells, factor added to five factors medium ([3]; 100 ng/ml PDGF-BB): no reduction

B2: WNT3A: recombinant protein, Wnt signaling factor added to medium (protein, UniProt P56704 19-352, looked up)
Protein Wnt-3a: SYPIWWSLAVGPQYSSLGSQPILCASIPGLVPKQLRFCRNYVEIMPSVAEGIKIGIQECQHQFRGRRWNCTTVHDSLAIFGPVLDKATRESAFVHAIASAGVAFAVTRSCAEGTAAICGCSSRHQGSPGKGWKWGGCSEDIEFGGMVSREFADARENRPDARSAMNRHNNEAGRQAIASHMHLKCKCHGLSGSCEVKTCWWSQPDFRAIGDFLKDKYDSASEMVVEKHRESRGWVETLRPRYTYFKVPTERDLVYYEASPNFCEPNPETGSFGTRDRTCNVSSHGIDGCDLLCCGRGHNARAERRREKCRCVFHWCCYVSCQECTRVYDVHTCK
EFNB2-tdTomato high/EPHB4-EGFP low cells / arterial differentiation, factor added to five factors medium [1]: did not further increase arterial differentiation
arterial specification (EFNB2-tdTomato and EPHB4-EGFP expression), factor added singly [1]: promoted increased arterial specification; also recorded: promoted arterial differentiation
